Assay results as given in US12522601B2, “1,3,4-oxadiazole derivative compounds as histone deacetylase 6 inhibitor, and the pharmaceutical composition comprising the same” (CHONG KUN DANG PHARMACEUTICAL CORP., priority 2020, dated 2026).

Experiments:
[1] = biological target: T1, human recombinant HDAC6 (Homo sapiens, UniProt Q9UBN7); assay: In vitro HDAC enzyme activity inhibition assay, HDAC6 (HDAC Fluorimetric Drug Discovery Kit); type: biochemical; conditions: for HDAC6 Selectivity (fold): HDAC6 versus HDAC1; for IC50: human recombinant HDAC6, same protocol as the HDAC1 test
T1 construct: purchased Calbiochem Inc. 382180
T1 sequence (Q9UBN7 1-1215): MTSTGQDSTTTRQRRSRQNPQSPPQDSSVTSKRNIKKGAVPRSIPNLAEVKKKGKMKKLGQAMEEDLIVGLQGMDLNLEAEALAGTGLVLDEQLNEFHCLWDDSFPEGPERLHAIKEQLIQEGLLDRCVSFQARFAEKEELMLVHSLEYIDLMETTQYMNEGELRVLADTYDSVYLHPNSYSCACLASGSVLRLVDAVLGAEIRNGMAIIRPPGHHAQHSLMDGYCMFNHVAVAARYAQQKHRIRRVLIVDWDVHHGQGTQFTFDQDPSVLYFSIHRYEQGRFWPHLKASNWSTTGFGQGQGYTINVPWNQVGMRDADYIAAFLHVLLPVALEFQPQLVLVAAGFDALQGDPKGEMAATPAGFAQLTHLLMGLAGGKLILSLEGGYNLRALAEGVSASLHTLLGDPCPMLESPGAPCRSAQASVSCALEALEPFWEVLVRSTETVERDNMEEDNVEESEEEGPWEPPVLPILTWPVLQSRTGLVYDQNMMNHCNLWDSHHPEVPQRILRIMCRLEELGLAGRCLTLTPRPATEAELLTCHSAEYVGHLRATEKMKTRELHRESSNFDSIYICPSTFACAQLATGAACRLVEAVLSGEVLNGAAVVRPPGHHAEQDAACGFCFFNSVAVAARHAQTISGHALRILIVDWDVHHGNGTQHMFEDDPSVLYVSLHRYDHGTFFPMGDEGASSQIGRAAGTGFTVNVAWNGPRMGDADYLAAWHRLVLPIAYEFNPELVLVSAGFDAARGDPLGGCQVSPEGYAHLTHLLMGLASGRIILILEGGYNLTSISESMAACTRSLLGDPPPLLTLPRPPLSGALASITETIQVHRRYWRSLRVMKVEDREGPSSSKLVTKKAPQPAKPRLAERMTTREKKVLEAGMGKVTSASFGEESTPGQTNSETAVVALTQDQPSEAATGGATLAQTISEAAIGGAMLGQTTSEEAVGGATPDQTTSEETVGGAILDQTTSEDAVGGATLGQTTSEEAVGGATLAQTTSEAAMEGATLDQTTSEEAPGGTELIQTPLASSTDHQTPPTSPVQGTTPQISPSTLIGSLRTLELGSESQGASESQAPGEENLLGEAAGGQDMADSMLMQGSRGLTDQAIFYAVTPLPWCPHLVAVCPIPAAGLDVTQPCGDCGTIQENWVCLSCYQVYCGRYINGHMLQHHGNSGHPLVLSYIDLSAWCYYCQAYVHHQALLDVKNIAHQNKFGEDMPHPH
In short: (§1)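 Both HDAC1 and HDAC6 (human recombinant, 0.3 μg) tested identically: 10 μM fluorogenic Fluor de Lys-SIRT1 substrate, reaction 60 min at 30° C, developer added for 30 min. IC50 calculated from Ex 360/Em 460 signal over 5-fold serial dilutions.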

[2] = biological target: T2, human recombinant HDAC1 (Homo sapiens, UniProt Q13547); assay: In vitro HDAC enzyme activity inhibition assay, HDAC1 (HDAC Fluorimetric Drug Discovery Kit); type: biochemical; conditions: human recombinant HDAC1, Fluor de Lys-SIRT1 substrate 10 μM, 30° C. for 60 minutes
T2 construct: purchased Enzo Life Sciences, Inc. BML-SE456
T2 sequence (Q13547 whole entry): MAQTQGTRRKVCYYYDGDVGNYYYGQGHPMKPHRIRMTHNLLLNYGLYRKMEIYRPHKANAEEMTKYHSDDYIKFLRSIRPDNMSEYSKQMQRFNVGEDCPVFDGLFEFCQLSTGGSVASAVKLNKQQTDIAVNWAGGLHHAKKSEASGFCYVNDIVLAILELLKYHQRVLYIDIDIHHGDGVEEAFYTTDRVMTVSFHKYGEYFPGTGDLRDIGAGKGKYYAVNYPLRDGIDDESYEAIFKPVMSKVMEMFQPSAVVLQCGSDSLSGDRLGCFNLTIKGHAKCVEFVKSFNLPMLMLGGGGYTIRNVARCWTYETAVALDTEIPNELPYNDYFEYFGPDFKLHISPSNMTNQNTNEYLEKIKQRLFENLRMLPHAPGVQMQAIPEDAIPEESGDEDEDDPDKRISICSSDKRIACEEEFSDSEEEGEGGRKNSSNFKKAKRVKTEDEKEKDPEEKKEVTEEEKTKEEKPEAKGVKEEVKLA
In short: as §1

HDAC6 Selectivity (fold) [1] [fold]	IC50 [1] [nM]	IC50 [2] [nM]	Compound
126	396	> 50000	CCC(=O)N1CCC(C(=O)N(Cc2cn3ccc(-c4nnc(C(F)F)o4)cc3n2)c2cccc(F)c2)CC1 [Compound 4147, N-((7-(5-(difluoromethyl)-1,3,4-oxadiazol-2-yl)imidazo[1,2-a]pyridin-2-yl)methyl)-N-(3-fluorophenyl)-1-propionylpiperidine-4-carboxamide]
315	159	> 50000	CCN1CC(C(=O)N(Cc2cn3ccc(-c4nnc(C(F)F)o4)cc3n2)c2cccc(F)c2)C1 [Compound 4189, N-((7-(5-(difluoromethyl)-1,3,4-oxadiazol-2-yl)imidazo[1,2-a]pyridin-2-yl)methyl)-1-ethyl-N-(3-fluorophenyl) azetidine-3-carboxamide]
295	170	> 50000	CS(=O)(=O)N1CC(C(=O)N(Cc2cn3ccc(-c4nnc(C(F)F)o4)cc3n2)c2cccc(F)c2)C1 [Compound 4203, N-((7-(5-(difluoromethyl)-1,3,4-oxadiazol-2-yl)imidazo[1,2-a]pyridin-2-yl)methyl)-N-(3-fluorophenyl)-1-(methylsulfonyl) azetidine-3-carboxamide]
359	139	> 50000	O=C(C1CCN(c2ccccn2)CC1)N(Cc1cn2ccc(-c3nnc(C(F)F)o3)cc2n1)c1cccc(F)c1 [Compound 4156, N-((7-(5-(difluoromethyl)-1,3,4-oxadiazol-2-yl)imidazo[1,2-a]pyridin-2-yl)methyl)-N-(3-fluorophenyl)-1-(pyridin-2-yl)piperidine-4-carboxamide]
325	154	> 50000	COC(=O)N1CCN(C(=O)N(Cc2cn3ccc(-c4nnc(C(F)F)o4)cc3n2)c2cccc(F)c2)CC1 [Compound 4098, methyl 4-(((7-(5-(difluoromethyl)-1,3,4-oxadiazol-2-yl)imidazo[1,2-a]pyridin-2-yl)methyl)(3-fluorophenyl)carbamoyl)piperazine-1-carboxylate]
299	167	> 50000	FC(F)c1nnc(-c2ccn3cc(CNc4ccccc4)nc3c2)o1 [Compound 3668, N-((7-(5-(difluoromethyl)-1,3,4-oxadiazol-2-yl)imidazo[1,2-a]pyridin-2-yl)methyl)aniline]
400	125	> 50000	COC(=O)N1CCN(C(=O)N(Cc2cn3ccc(-c4nnc(C(F)F)o4)cc3n2)c2ccccc2)CC1 [Compound 4046, methyl 4-(((7-(5-(difluoromethyl)-1,3,4-oxadiazol-2-yl)imidazo[1,2-a]pyridin-2-yl)methyl)(phenyl)carbamoyl)piperazine-1-carboxylate]
207	242	> 50000	CC(=O)N1CC(C(=O)N(Cc2cn3ccc(-c4nnc(C(F)F)o4)cc3n2)c2cccc(F)c2)C1 [Compound 4197, 1-acetyl-N-((7-(5-(difluoromethyl)-1,3,4-oxadiazol-2-yl)imidazo[1,2-a]pyridine-2-yl)methyl)-N-(3-fluorophenyl) azetidine-3-carboxamide]
249	201	> 50000	O=C(C1COC1)N1CCN(C(=O)N(Cc2cn3ccc(-c4nnc(C(F)F)o4)cc3n2)c2cccc(F)c2)CC1 [Compound 4103, N-((7-(5-(difluoromethyl)-1,3,4-oxadiazol-2-yl)imidazo[1,2-a]pyridin-2-yl)methyl)-N-(3-fluorophenyl)-4-(oxetan-3-carbonyl)piperazine-1-carboxamide]
151	332	> 50000	O=C(C1CCN(C2CCC2)CC1)N(Cc1cn2ccc(-c3nnc(C(F)F)o3)cc2n1)c1ccccc1 [Compound 4118, 1-cyclobutyl-N-((7-(5-(difluoromethyl)-1,3,4-oxadiazol-2-yl)imidazo[1,2-a]pyridin-2-yl)methyl)-N-phenylpiperidine-4-carboxamide]
177	283	> 50000	O=C(C1COC1)N1CC(C(=O)N(Cc2cn3ccc(-c4nnc(C(F)F)o4)cc3n2)c2cccc(F)c2)C1 [Compound 4201, N-((7-(5-(difluoromethyl)-1,3,4-oxadiazol-2-yl)imidazo[1,2-a]pyridin-2-yl)methyl)-N-(3-fluorophenyl)-1-(oxetane-3-carbonyl) azetidine-3-carboxamide]
206	243	> 50000	CC(=O)N1CCC(C(=O)N(Cc2cn3ccc(-c4nnc(C(F)F)o4)cc3n2)c2cccc(F)c2)CC1 [Compound 4146, 1-acetyl-N-((7-(5-(difluoromethyl)-1,3,4-oxadiazol-2-yl)imidazo[1,2-a]pyridin-2-yl)methyl)-N-(3-fluorophenyl)piperidine-4-carboxamide]
187	267	> 50000	CC(=O)N1CCN(C(=O)N(Cc2cn3ccc(-c4nnc(C(F)F)o4)cc3n2)c2cccc(F)c2)CC1 [Compound 4092, 4-acetyl-N-((7-(5-(difluoromethyl)-1,3,4-oxadiazol-2-yl)imidazo[1,2-a]pyridin-2-yl)methyl)-N-(3-fluorophenyl)piperazine-1-carboxamide]
125	400	> 50000	CCC(=O)N1CC(C(=O)N(Cc2cn3ccc(-c4nnc(C(F)F)o4)cc3n2)c2ccccc2)C1 [Compound 4168, N-((7-(5-(difluoromethyl)-1,3,4-oxadiazol-2-yl)imidazo[1,2-a]pyridin-2-yl)methyl)-N-phenyl-1-propionylazetidine-3-carboxamide]
283	177	> 50000	CN1CCC(C(=O)N(Cc2cn3ccc(-c4nnc(C(F)F)o4)cc3n2)c2cccc(F)c2)CC1 [Compound 4137, N-((7-(5-(difluoromethyl)-1,3,4-oxadiazol-2-yl)imidazo[1,2-a]pyridin-2-yl)methyl)-N-(3-fluorophenyl)-1-methylpiperidine-4-carboxamide]
170	294	> 50000	FC(F)c1nnc(-c2ccn3cc(CNC4CCCCC4)nc3c2)o1 [Compound 3678, N-((7-(5-(difluoromethyl)-1,3,4-oxadiazol-2-yl)imidazo[1,2-a]pyridin-2-yl)methyl)cyclohexanamine]
205	244	> 50000	Fc1ccc(Cc2cn3ccc(-c4nnc(C(F)F)o4)cc3n2)c(F)c1 [Compound 3588, 2-(2-(2,4-difluorobenzyl)imidazo[1,2-a]pyridin-7-yl)-5-(difluoromethyl)-1,3,4-oxadiazole]
134	373	> 50000	CN1CC(C(=O)N(Cc2cn3ccc(-c4nnc(C(F)F)o4)cc3n2)c2cccc(F)c2)C1 [Compound 4188, N-((7-(5-(difluoromethyl)-1,3,4-oxadiazol-2-yl)imidazo[1,2-a]pyridin-2-yl)methyl)-N-(3-fluorophenyl)-1-methylazetidine-3-carboxamide]
335	149	> 50000	O=C(CO)N1CCC(C(=O)N(Cc2cn3ccc(-c4nnc(C(F)F)o4)cc3n2)c2cccc(F)c2)CC1 [Compound 4149, N-((7-(5-(difluoromethyl)-1,3,4-oxadiazol-2-yl)imidazo[1,2-a]pyridin-2-yl)methyl)-N-(3-fluorophenyl)-1-(2-hydroxyacetyl)piperidine-4-carboxamide]
